Measured values published in a melting point compilation (Tetko et al.; mined from patent text by program, amines drawn as free bases though some values may be those of a salt).

Row | SMILES | melting point [°C]
1 | NC(=O)c1sc2nc(N3CCC(NCC(O)c4ccccn4)CC3)cc(C(F)(F)F)c2c1N (stereo not drawn) | 165 to 167
2 | O=C1C(Br)CCN1c1cc(C(F)(F)F)ccn1 (stereo not drawn) | 43 to 47
3 | CCOC(=O)NN=C(c1ccc(Cl)cc1)c1ccc(OP(=S)(OCC)OCC)cc1 | 106
4 | O=C1Cc2cc3ccccc3cc2C(c2ccccc2Cl)N1 (stereo not drawn) | 234 to 237
5 | O=C(Cc1ccccc1)NC(C(=O)O)C(c1ccccc1)c1ccccc1 (stereo not drawn) | 173
6 | CCOC(=O)C(=CNc1ccc(OC)c(=O)cc1)C(=O)OCC | 108 to 110
7 | CN1C(=O)C2(COc3cc4c(cc32)OCCO4)c2c(-c3cc[nH]n3)cccc21 (stereo not drawn) | 201 to 202
8 | COc1ccc(-c2cc(F)c(F)cc2-c2ccc(S(N)(=O)=O)cc2)cc1F | 132 to 133
9 | N#Cc1nn(-c2c(Cl)cc(C(F)(F)F)cc2Cl)c(N)c1-c1cccc(Cl)c1 | 161 to 162
10 | CCc1noc(-c2cc3c(cn2)[nH]c2cccc(Oc4ccc(Cl)cn4)c23)n1 | 259 to 260
11 | COc1cc(-c2oc3c(OC)cc(/C=C/C=O)cc3c2C)ccc1O | 169 to 170
12 | O=C(O)c1csc(Nc2ccc(Cl)c(C(F)(F)F)c2)n1 | 254 to 256
13 | CC(C)n1nc(-c2sc(NC=O)nc2-c2ccccc2)ccc1=O | 232 to 234
14 | CC(C)(C)NCC(O)c1ccc(N)c(F)c1F (stereo not drawn) | 133 to 135
15 | CCCCCCOc1ccc(S(=O)(=O)N(CC(=O)NO)CC(C)C)cc1 | 108 to 110
16 | CCCCCCC(=O)N1C(C)Cc2ccccc2C1CNC(=O)c1cc(OC)c(OC)c(OC)c1 (stereo not drawn) | 161 to 163
17 | N#Cc1ccc(OCCCOc2ccc(-c3cc4cc(C#N)ccc4o3)cc2)cc1 | 188 to 189
18 | O=c1n(CC2CO2)c(=O)n(CC2CO2)n1CC1CO1 (stereo not drawn) | 93 to 94
19 | O=[N+]([O-])c1cn2c(n1)O[C@@H](CN1CCN(Cc3ccc(C(F)(F)F)cc3)CC1)C2 | 149 to 150
20 | OCCC1CCc2cc(OCc3ccc4ccccc4c3)ccc2C1 (stereo not drawn) | 90 to 91
21 | NC(Cc1cccc(O)c1)c1ccccc1 (stereo not drawn) | 179 to 181
22 | C[C@@H](S[C@H]1CO[C@H](c2ccc(C(=O)NCc3ccc(C#N)cc3)cc2)OC1)[C@](O)(Cn1cncn1)c1ccc(F)cc1F | 188
23 | COc1cccc(COC(=O)c2ncn3c2[C@@H]2CCCN2C(=O)c2c(Cl)cccc2-3)c1 | 131 to 133
24 | Cc1[nH]cnc1CSCCCN=C(NC#N)NCCc1c[nH]cn1 | 135 to 137
25 | O=C(O)Cc1ccc2c(c1)CCc1ccccc1O2 | 135 to 137
26 | COc1ccc(C(C)(C)C)c(O)c1C(=O)Oc1ccccc1 | 74 to 75
27 | CNc1nc(N)ncc1-c1ccc(Cl)cc1Cl | 189 to 190

Row | SMILES | melting point [°C]
28 | OC(CS)(Cn1cncn1)c1ccc(Cl)cc1Cl (stereo not drawn) | 139 to 142
29 | COC(=O)c1ccc2cc(S)ccc2c1 | 150 to 151
30 | C#Cc1cccc(N2C(=O)c3ccc([N+](=O)[O-])cc3C2=O)c1 | 257 to 259
31 | COC(=O)C(C)(N)Cc1c[nH]c2ccc(OCC3CC3)cc12 (racemic) | 172
32 | COC(=O)C[C@H](Br)C(N)=O | 82 to 84
33 | O=C(O)C(Cc1ccccc1)C(O)CCCCCOCc1ccccc1 (stereo not drawn) | 66 to 67
34 | Fc1cc(-n2cc(CN=C=S)nn2)cc(F)c1N1CCOCC1 | 135
35 | Cc1ncccc1C(=O)NCC1CCN(C[C@H]2COc3ccc(Cl)cc3O2)CC1 | 133 to 136
36 | CC(CS(=O)(=O)c1ccccc1)C1CC=C2C3=C(CCC21C)C1(C)CCC(OC(=O)c2ccccc2)C(C)(C)C1CC3 (stereo not drawn) | 175 to 188
37 | COc1nc(C)cc(C(=O)O)n1 | 161 to 163
38 | O=c1cc(N2CCCCC2)sn1CCc1ccccc1 | 106 to 108
39 | CCN(C)c1nc2cc(NC(=O)c3c(C(=O)O)cnn3C)ccn2n1 | > 250
40 | NC(=O)Cc1c(-c2ccccc2)nn(-c2ccccc2)c1-c1ccccc1 | 123 to 124
41 | CCCCc1ccc(C(=O)NC(C)(C(N)=O)C(C)C)nc1 (stereo not drawn) | 83 to 86
42 | CC1CN(Cc2ccccc2)CCC12CC(c1ccccc1)=NO2 (stereo not drawn) | 101 to 108
43 | O=C1CC2(CC(=O)O1)c1ccccc1Oc1ccccc12 | 188 to 190
44 | CCOc1ccc2c3c([nH]c2c1)CC(NC(C)=O)CC3 (stereo not drawn) | 184 to 186
45 | Cc1sc(N2CCN(C(=O)OC(C)(C)C)CC2)nc1/C=C/c1cn(-c2ccccc2)nc1O | 221 to 223
46 | CN1CCC(O)(C2SCCCS2)CC1 | 115 to 120
47 | CC(C)CCS(=O)(=O)NC(=O)OCc1cc(OC(C)C)nn1Cc1ccc(Cl)cc1Cl | 104 to 107
48 | Cc1ccc(C23CC4CC(C2)CC(c2ccc(C)cc2)(C4)C3)cc1 | 145 to 146
49 | CC(=O)c1c(-c2ccc(O)c3ccccc23)oc2ccccc12 | 212 to 216
50 | O=c1oc(-c2ccccc2)cc(O)c1SCC1CCCCC1 | 141 to 143
51 | Cc1cc2c(cc1C1=NNC(=O)CC1)NC(=O)CO2 | 255 to 257
52 | NC(=O)N(O)Cc1cccc(C(O)C#Cc2cccnc2)c1 (stereo not drawn) | 153
53 | Cc1ccnc2c1nc(COc1ccc(CC3SC(=O)NC3=O)cc1)n2C (stereo not drawn) | 205 to 207

Further lines, results first:

Row | melting point [°C] | SMILES
54 | 66 to 68 | CCCCCCCCCCCCCCCCCCOc1cc(OCc2ccccc2)cc(N(CC(=O)OC)CC(=O)OC)c1
55 | 224 to 225 | O=C(O)C1Cc2cc3c(-c4ccccc4Cl)noc3c(Cl)c2O1 (stereo not drawn)
56 | 49 to 50 | CCOC(=O)C=C(C)C=CC=O
57 | 117 to 119 | O=C(O)c1ccc(NCCCCCCCCCCCOc2ccccc2)cc1
58 | 220 to 222 | CC(=O)NCC(C)(C)c1ccc(C(=O)Nc2cn3cc(Cl)ccc3n2)cc1
59 | 142 to 146 | CC12CC(=O)C3C(CCC4CC(O)CCC43C)C1CCC2C(=O)OCC#N (stereo not drawn)
60 | 170 to 172 | COC(=O)N1CC(=O)Nc2cccc(F)c21
61 | 172 to 174 | CC(C)c1nc(COC(=O)N[C@H](C(=O)N[C@@H](Cc2ccccc2)[C@@H](O)C[C@H](Cc2ccccc2)NC(=O)OCc2cncs2)C(C)C)cs1
62 | > 300 | Oc1nc2ccccc2n2c(C(F)(F)F)nnc12
63 | 195 to 198 | O=C1Nc2ccccc2C(c2ccccc2)N1C1CCN(Cc2cccc(OC(F)(F)F)c2)CC1 (single isomer, unassigned; (+))
64 | 68 to 70 | CCCCC(=Nc1sccc1C(=O)NCCC)OC
65 | 146 to 148 | CS(=O)(=O)Cc1cc(C(O)CNCCCCCCNCC(O)c2ccc(OCc3ccccc3)c(CS(C)(=O)=O)c2)ccc1OCc1ccccc1 (stereo not drawn)
66 | 85 | COC(=O)C(C)(C)Oc1ccc(C(=O)c2cccs2)cc1
67 | 50 to 52 | C=CC(=O)OCc1cn(CCCCCCCCCCCC)nn1
68 | 188 to 191 | COc1ccc(CCC(=O)Nc2c(C)c(C)c3c(c2C)C(c2ccc(C(C)C)cc2)C(C)(C)O3)cc1 (stereo not drawn)
69 | 115 to 116 | Cc1cccc(-n2ccc(=O)c(-c3ccnn3-c3ccccc3)n2)c1
70 | 71 to 75 | COc1cc(/C=C/C(=O)c2ccc(NS(C)(=O)=O)cc2)cc(-c2cccs2)c1OC
71 | 171 to 172 | CCCc1nc2ccccc2c(=O)n1Cc1ccc(-c2ccccc2-c2nnn[nH]2)cc1
72 | > 260 | O=c1[nH]c2ccccc2c2c(=O)n(-c3ccccc3)[nH]c12
73 | 135 to 136 | CS(=O)(=O)c1nccc(-n2cncn2)n1
74 | 134 to 135 | FC(F)(F)c1ccc(-c2cc3[nH]ccn3n2)cc1
75 | 175 to 177 | Cc1cc(-c2ccco2)ccc1-c1cc(C(F)(F)F)nn1-c1ccc(S(C)(=O)=O)cc1
76 | 91 to 93 | COC(=O)c1ccc(SCc2cccc(C(F)(F)F)c2)c(C)n1

Row | melting point [°C] | SMILES
77 | 113 to 115 | COC(=O)C(Cc1c[nH]c2ccccc12)NCOC(C)[Si](C)(C)C (racemic)
78 | 90 to 96 | COc1ccc(O)cc1/C=C/C(=O)CC(=O)/C=C/c1cc(O)ccc1Br
79 | 217 to 220 | O=C(N1CCCC1)N1Cc2c(C3=NCCO3)ncn2-c2ccccc21
80 | 183 | O=[N+]([O-])c1ccc2sc(NCCO)nc2c1
81 | 67.5 to 68.5 | CC(O)C1C(=O)NC1CC(=O)OCc1ccccc1 (mixture of isomers)
82 | 174 to 175 | COC(=O)c1ccc(Cc2cccc3ccc(C(=O)NCC(C)C)cc23)c(OC)c1
83 | 226 | CS(=O)(=O)c1ccc(/C(=C2\N=C(c3ccccc3)OC2=O)c2ccc(Cl)cc2)cc1
84 | 248 to 250 | O=C(CCl)Nc1ccc2c(c1NC(=O)c1ccccc1C(F)(F)F)C(=O)c1ccccc1C2=O
85 | 268 | Cc1nc(NC(=O)c2cnn3c(C(F)F)cc(-c4ccc(C(F)(F)F)cc4)nc23)sc1S(=O)(=O)NC(C)(C)CO
86 | 122 to 125 | COc1ccccc1Cn1c(=O)c2c(N3CCNCC3)cc(Cl)cc2n(Cc2ccccc2)c1=O
87 | 165 to 166 | CC(=O)Nc1nc(CSc2ccc([N+](=O)[O-])cc2)cs1
88 | 32 to 35 | c1ccc(OCCSCc2ncc(-c3ccc(OCCCN4CCCCCC4)cc3)o2)cc1
89 | 268 to 270 | Nc1nc2c(ncn2C(c2ccccc2)(c2ccccc2)c2ccccc2)c(=O)[nH]1
90 | 252 to 254 | O=C1Cc2c(cc3ccccc3c2Cl)C(c2ccccc2Cl)N1 (stereo not drawn)
91 | 129 | CC(c1ccc(NC=O)cc1)n1ccnc1 (stereo not drawn)
92 | 169 to 170 | COc1ccc2sc(C(N)=O)c(S(=O)(=O)C(C)C)c2c1
93 | 160 to 164 | Cc1cc(C(C)(C)C)cc(C)c1C(=O)O
94 | 197 to 200 | COc1ccc(C2C(C#N)=C(N)OC3=C2C(=O)CC(C)(C)C3)cc1 (stereo not drawn)
95 | 144 | O=C(Nc1cccc(S(=O)(=O)N2CCOCC2)c1)c1cnn2c(C(F)(F)F)cc(-c3ccc(Cl)cc3)nc12
96 | 217 to 220 | Cc1noc(-c2cccc(NC(=O)Oc3ccc([N+](=O)[O-])cc3)c2)n1
97 | 118 to 120 | CCOC(=O)C(C)Oc1ccc2cc(Oc3c(Cl)cc(C(F)(F)F)cc3Cl)ccc2c1 (stereo not drawn)
98 | 120 to 125 | CC(=O)O[C@@H]1[C@@H](OC(C)=O)[C@H](C)O[C@@H](OC[C@H]2O[C@H](Br)[C@H](OC(C)=O)[C@@H](OC(C)=O)[C@@H]2OC(C)=O)[C@@H]1OC(C)=O
